Series [1] in a line: Electrochemical activity: polarographic reduction on mercury dripping electrode. The class given is physicochemical. The note with it: for number of electrons participating in the reduction reaction: calculated with Geirovsky-Ilkovich equation; for i: 2.0% sodium chloride background, 9·10^−4 M; for i / −E1/2: 37° C., forward trace, average for the group of compounds; for −E1/2: vs SCE; for half-wave potential more positive at reverse stroke compared to forward stroke: polarograms of reverse stroke. Here is the method: The study was carried out on a general-purpose polarograph PU-1 with a two-coordinate recorder of the “LKD” type using a three-electrode thermostatically controlled polarographic cell and mercury dripping electrode (MDE) with forced separation of the drop and a dropping period of 0.5 second. A platinum wire was used as an auxiliary electrode and a saturated calomel electrode (SCE) was used as a control electrode.
2.0% solutions of sodium chloride having pH 7.0, 7.2, 7.4, 7.6 were used as a background; the pH values of the background solution were corrected by a solution of sodium hydroxide. The polarographic cell was filled with 5.0 ml of the background solution and for 5 minutes was purged with nitrogen for removing the dissolved oxygen. Then 0.5 ml of solution of the studied substance was added to the background solution, and the polarogram was recorded as a polarographic wave. The concentration of the compounds in the polarographic cell was 9·10^−4 M.
The pH was measured on the pH-meter with an accuracy of +0.05 pH units. The polarographic measurements were carried out at a temperature of 37° C. The recording of polarograms of the investigated materials was effected under conditions of DC current at a scanning rate of the potential 10.0 mV/s with a active scanning stroke from a potential 0 to −0.5 V and sweep retrace from a −0.5 V to 0. The electric-current sensitivity was 5.0 mkA. The scale by the coordinate of the potentials was 50.0 mV/cm. The values of potentials of the half-wave E1/2 of the investigated materials are given with respect to the SCE potential.
The polarogram parameters such as a limiting current ilim and E1/2 were determined by the graphic method. The number of electrons participating in the reaction was calculated on the basis of the analysis of the polarographic wave using the Geirovsky-Ilkovich equation.
The calculation of the number of electrons participating in the reduction reaction was effected using the Geirovsky-Ilkovich equation: […]

Series [2] concerns embryonic fibroblasts of mouse NIH-3T3. Kind of series: Effect on endocellular pHi of fibroblasts (microspectrofluorimetry with FDA / BCECF-AM). The following applies: for rise of pHi: fibroblasts in an attached spread state; for change of pHi: medium DME without blood serum, 20 minutes; for increase of pHi of cytosol: medium with 10.0% blood serum, 20 minutes after addition. The class given is cell-based. Here is the method: The effect of the compounds according to the invention on the endocellular pH, embryonic fibroblasts of mouse NIH-3T3 supplied by the All-Russian Collection of Cellular Cultures of the Institute of Cytology of the Russian Academy of Sciences St. Petersburg was investigated. The cells were grown in the DMEM (Sigma) medium containing 2.2 g/l of sodium bicarbonate with addition of 80.0 mkg/ml of gentamicin and 10.0% embryonal veal serum at a temperature of 37° C. in an atmosphere containing 5.0% of carbon dioxide. For these experiments use was also made of a medium buffer with 5.0 mM of HEPES and 15.0 mM of sodium bicarbonate without serum or with addition of 5.0% serum. The cells were calculated with the help of a hemocytometer. A share of the dead cells was determined by colouring trypan blue.
The measurements of the endocellular pHi were carried out with the help of colorants FDA (Sigma) and BCECF-AM (Calbiochem) on a microspectrofluorimeter by a standard technique (Koshevoy Yu. V., Akatov V. S., Grobova M. E. Microspectrofluorimeter for measuring endocellular pH (micro pH)”. Devices and equipment for studies in the field of physical-and-chemical biology and biotechnology. Pushchino, 1990. P. 8-14).
The cells at a temperature of 37° C. were colored within 5 minutes with 5.0 mkM PDA that before the colouring was prepared from a 10.0 mM solution in acetone by dilution for 30 minutes in a phosphatic buffer to 0.1 mM or 2.0 mkM 1.0 mM solution BCECF-AM in DMSO.
The two-wave method of determining pHi was used based on the ratio intensities of fluorescence of the cells on two wavelengths (Akatov V. S. et all), “Endocellular pH and substrate dependence of proliferation of fibroblasts of Chinese hamster, Cytology, 1991, 33 (7), p. 86-94). The fluorescence was excited by light at λ=490 nm, the emission was recorded simultaneously with two photomultipliers on wavelengths λ=535 nm and λ=570 nm. The K-ratio of the fluorescence on two wavelengths was determined with a deduction of the background fluorescence of the medium near the investigated cells for 40-60 individual cells, which are then averaged taking into account the measurement error. A thermostatically controlled table was used that allowed measurements to be conducted at a temperature of 37° C. An account was taken for the photodynamic damage of the pigmented cells during long-time continuous illumination by excited light. The readings were taken from a section of the preparation exposed to light for not more than 5 minutes.
The calibration curves for determining the absolute pHi values by magnitude K were constructed using the Thomas technique (Thomas J. A., Bushbaum R. N., Zimniak A. w Racker E. “Intracellular pH measurements in Ehrlich ascites tumor cells utilizing spectroscopic probe generated in situ”, Biochemistry, 1979, v. 18, p. 2210-2218), for which case the pigmented cells treated for 5-10 minutes with carboxyacidic nigericyn (Calbiochem) at a concentration of 5-10 mkg/ml was placed in a solution with a high content of potassium—130 mM KCl, 1.0 mM MgCl2, 20.0 mM of HEPES) and with pH values from 6.2 to 7.6. The K values were measured in the media with different pH assuming that pHi of the cells equals to the pH of the medium due to the action of nigericyn, which exchanges potassium ions for protons and at a high content of potassium in the medium counterbalances the pH of the medium and cells. Calibration curves were used based on the fluorescence of same medium with addition of 5.0 mkM of fluorescence or BCECF were used to the control the stability of the of the instrument readings.
The cells were colored by pigment BCECF-AM and pHi was measured 10 minutes after incubation in the medium with an appropriate pH value. […]

Turning to `O=c1[nH][nH]c(=O)c2ncccc12.[Na]` [Compound 7, sodium salt of pyrido[2,3-d]-6H-pyridazine-5,8-dione], the “number of electrons participating in the reduction reaction” value (“number … in the reduction reaction” for short) in series [1] is reported as 3.72. In addition, the i was 0.26 ± 0.04 mkA in series [1] (pH 7.0), 0.31 ± 0.02 mkA in series [1] (pH 7.2), 0.27 ± 0.03 mkA in series [1] (pH 7.4) and 0.30 ± 0.01 mkA in series [1] (pH 7.6). For the same compound, the “−E1/2” value in series [1] (pH 7.0) amounted to 0.11 ± 0.02 V; in series [1] (pH 7.2) it was 0.11 ± 0.03 V; in series [1] (pH 7.4), 0.105 ± 0.01 V; in series [1] (pH 7.6), 0.105 ± 0.02 V. The “half-wave potential more positive at reverse stroke compared to forward stroke” value in series [1] turned out to be 25.0 mV. The “rise of pHi” value amounted to 0.10 unit pHi in series [2] (2.0 mkg/ml, on the average) and 0.07 unit pHi in series [2] (20.0 mkg/ml, on the average). The “change of pHi” value in series [2] (0.02 mkg/ml) is listed as “no effect was found”; in series [2] (0.2 mkg/ml) it was “no effect was found”; in series [2] (2.0 mkg/ml, on the average), 0.08 unit pHi; in series [2] (20.0 mkg/ml, on the average) it was 0.08 unit pHi; in series [2] (200 mkg/ml), “no effect was found”; in series [2] (1000 mkg/ml) it was “no effect was found”. Besides, the “increase of pHi of cytosol” value in series [2] (0.02 mkg/ml) is reported as “do not initiate a change of pH”; in series [2] (0.2 mkg/ml, on the average) it was 0.1 unit pH; in series [2] (2.0 mkg/ml, on the average) it was 0.12 unit pH; in series [2] (20.0 mkg/ml), “do not initiate a change of pH”.
`O=C([O-])c1ccc2c(=O)[nH][nH]c(=O)c2c1.O=C([O-])c1ccc2c(=O)[nH][nH]c(=O)c2c1.[Na+].[Na+]` [Compound 18, disodium salt of 6-carboxy-benzo[d]-3H-pyridazine-1,4-dione]: the “number … in the reduction reaction” value in series [1] is given as 4.09. The i in series [1] (pH 7.0) was found to be 0.23 ± 0.03 mkA; in series [1] (pH 7.2), 0.30 ± 0.01 mkA; in series [1] (pH 7.4), 0.29 ± 0.02 mkA; in series [1] (pH 7.6) it was 0.31 ± 0.02 mkA. The “−E1/2” value in series [1] (pH 7.0) amounted to 0.092 ± 0.02 V; in series [1] (pH 7.2) it was 0.09 ± 0.01 V; in series [1] (pH 7.4), 0.092 ± 0.02 V; in series [1] (pH 7.6), 0.09 ± 0.01 V. Also, the “half-wave potential more positive at reverse stroke compared to forward stroke” value in series [1] is 30.0 mV. The “rise of pHi” value worked out at 0.10 unit pHi in series [2] (2.0 mkg/ml, on the average) and 0.07 unit pHi in series [2] (20.0 mkg/ml, on the average). The “change of pHi” value in series [2] (0.02 mkg/ml) is reported as “no effect was found”; in series [2] (0.2 mkg/ml) it was “no effect was found”; in series [2] (2.0 mkg/ml, on the average) it was 0.08 unit pHi; in series [2] (20.0 mkg/ml, on the average), 0.08 unit pHi; in series [2] (200 mkg/ml) it was “no effect was found”; in series [2] (1000 mkg/ml) it was “no effect was found”. Besides, the “increase of pHi of cytosol” value in series [2] (0.02 mkg/ml) is recorded as “do not initiate a change of pH”; in series [2] (0.2 mkg/ml, on the average), 0.1 unit pH; in series [2] (2.0 mkg/ml, on the average) it was 0.12 unit pH; in series [2] (20.0 mkg/ml) it was “do not initiate a change of pH”.
Turning to “disodium salt of 3-κapõoκcℏ-7-(β-D-ribofuranosile)pyrido[2,3-d]-6H-pyridazine-5,8-dione [Compound 5]”, the “number … in the reduction reaction” value in series [1] is recorded as 3.72. Besides, the i is reported as 0.26 ± 0.04 mkA in series [1] (pH 7.0), 0.31 ± 0.02 mkA in series [1] (pH 7.2), 0.27 ± 0.03 mkA in series [1] (pH 7.4) and 0.30 ± 0.01 mkA in series [1] (pH 7.6). Also, the “−E1/2” value came to 0.11 ± 0.02 V in series [1] (pH 7.0), 0.11 ± 0.03 V in series [1] (pH 7.2), 0.105 ± 0.01 V in series [1] (pH 7.4) and 0.105 ± 0.02 V in series [1] (pH 7.6). For the same compound, the “half-wave potential more positive at reverse stroke compared to forward stroke” value in series [1] amounted to 25.0 mV.
Take “potassium salt of 3-bromine-pyrazine[2,3-Cl]-6H-pyridazine-5,8-dione [Compound 27]”: the “number … in the reduction reaction” value in series [1] is 3.72. Besides, the i in series [1] (pH 7.0) was found to be 0.32 ± 0.03 mkA; in series [1] (pH 7.2) it was 0.33 ± 0.04 mkA; in series [1] (pH 7.4), 0.34 ± 0.03 mkA; in series [1] (pH 7.6), 0.34 ± 0.02 mkA. Further, the “−E1/2” value is on record as 0.16 ± 0.02 V in series [1] (pH 7.0), 0.19 ± 0.02 V in series [1] (pH 7.2), 0.175 ± 0.01 V in series [1] (pH 7.4) and 0.16 ± 0.015 V in series [1] (pH 7.6). The “half-wave potential more positive at reverse stroke compared to forward stroke” value in series [1] came to 20.0 mV.

The values above are taken from patent publication US8592421B2, “Cyclic bioisosters of purine system derivatives and a pharmaceutical composition based thereon” (priority 2003, dated 2013).
